Test system: Transplanted paddy rice plant
Assay: Biological Test 1 (treatment on the 3rd day after transplantation): chemical injury to paddy rice
Type: in vivo
Design: scale not given here
Conditions: Treatment performed 3 days after transplantation
Method: (1) Preparation of Herbicide
Talc (57 parts by weight) and bentonite (40 parts by weight), both serving as carriers, and sodium alkylbenzenesulfate (3 parts by weight) serving as a surfactant were homogeneously ground and mixed to thereby obtain a carrier for water-dispersible powder.
Subsequently, to the water-dispersible powder (90 parts by weight), the triketone derivative (compound No. A-1) produced in Example I-1 (10 parts by weight) was added, and the resultant mixture was homogeneously ground and mixed to thereby obtain a herbicide.
(i) Biological Test 1 (Soaking in Water/Treatment on the 3rd Day After Transplantation)
A Wagner pot (1/2000 are) was filled with paddy soil, and seeds of barnyard grass were planted on the surface layer of the soil, and further, rice seedlings grown to the 2.5-leaf stage were transplanted.
Subsequently, water was poured in the pot to a height of 3 cm above the soil surface, and placed in a greenhouse where the temperature was maintained at 20-25° C., to thereby grow the plant under suitable conditions.
On the 3rd day after transplantation, the herbicide prepared in (1) above was applied to the plant in a predetermined amount. On the 30th day after treatment with the herbicide, weed-killing ratio, herbicidal effect, and extent of chemical injury to paddy rice were examined.
In Biological tests 1 and 2, herbicidal effect and extent of chemical injury were evaluated according to the below-described standards.
3) Chemical Injury to Paddy Rice
Chemical injury to paddy rice was evaluated according to the following criteria.

[1] = dose 100 g/ha, examined on the 30th day after treatment
[2] = dose 200 g/ha, examined on the 30th day after treatment

| SMILES | Chemical injury, Transplanted paddy rice plant (dose 100 g/ha) | Chemical injury, Transplanted paddy rice plant (dose 200 g/ha) | Chemical injury, Transplanted paddy rice plant [1] | Chemical injury, Transplanted paddy rice plant [2] |
| --- | --- | --- | --- | --- |
| Cc1cccc(SC2=C(C(=O)c3ccc4c(c3Cl)CCS4(=O)=O)C(=O)CCC2)c1 [B-15, 4-chloro-5-[3-(3-methylphenyl)thio-1-oxocyclohexan-2-yl]carbonyl-2,3-dihydrobenzothiophene-1,1-dioxide] | 0 | 0 |  |  |
| CC(C)c1ccccc1SC1=C(C(=O)c2ccc3c(c2Cl)CCS3(=O)=O)C(=O)CCC1 [B-18] | 0 | 0 |  |  |
| Cc1cc(C(=O)C2=C(Cl)CCCC2=O)c(Cl)c2c1S(=O)(=O)CC2 [B-4] | 1 | 2 |  |  |
| Cc1cc(C(=O)C2=C(Sc3ccccc3)CCCC2=O)c(C)c2c1S(=O)(=O)CCC2OC(C)C (stereo not shown) [B-68, 4-(2-propyl)oxy-5,8-dimethyl-6-(3-phenylthio-1-oxocyclohexan-2-yl)carbonylthiochroman-1,1-dioxide] | 0 | 0 |  |  |
| COC(=O)c1ccccc1SC1=C(C(=O)c2ccc3c(c2Cl)CCS3(=O)=O)C(=O)CCC1 [B-19] | 0 | 0 |  |  |
| C=CCS(=O)(=O)C1=C(C(=O)c2ccc3c(c2Cl)CCS3(=O)=O)C(=O)CCC1 [B-38, 4-chloro-5-[3-(3-propenyl)sulfonyl-1-oxocyclohexan-2-yl]carbonyl-2,3-dihydrobenzothiophene-1,1-dioxide] | 0 | 0 |  |  |
| CN(C)C1=C(C(=O)c2ccc3c(c2Cl)CCS3(=O)=O)C(=O)CCC1 [B-13] | 0 | 0 |  |  |
| CCCS(=O)(=O)C1=C(C(=O)c2cc(C)c3c(c2C)/C(=N/OC)CCS3(=O)=O)C(=O)CCC1 [B-62, 4-methoxyimino-5,8-dimethyl-6-[3-(3-propyl)sulfonyl-1-oxocyclohexan-2-yl]carbonylthiochroman-1,1-1,1-dioxide] | 0 | 0 |  |  |
| CS(=O)(=O)C1=C(C(=O)c2ccc3c(c2Cl)CCS3(=O)=O)C(=O)CCC1 [B-24] | 0 | 0 |  |  |
| CCCS(=O)(=O)C1=C(C(=O)c2ccc3c(c2Cl)CCS3(=O)=O)C(=O)CCC1 [B-28] | 0 | 0 |  |  |
| COCCOC1=C(C(=O)c2ccc3c(c2Cl)CCS3(=O)=O)C(=O)CCC1 [B-53] | 0 | 0 |  |  |
| CC1CC(C)(C)C(=O)C(C(=O)c2ccc3c(c2Cl)CCS3(=O)=O)=C1O (stereo not shown) [A-13, 4-chloro-5-(4,4,6-trimethyl-1,3-dioxocyclohexan-2-yl)carbonyl-2,3-dihydrobenzothiophene-1,1-dioxide] |  |  | 1 | 3 |
| CO/N=C1\CCS(=O)(=O)c2ccc(C(=O)C3=C(Cl)CCCC3=O)c(C)c21 [B-72] | 0 | 0 |  |  |
| CCCCS(=O)(=O)C1=C(C(=O)c2ccc3c(c2Cl)CCS3(=O)=O)C(=O)CCC1 [B-30] | 0 | 0 |  |  |
| O=C1CCCC(Sc2ccccc2O)=C1C(=O)c1ccc2c(c1Cl)CCS2(=O)=O [B-48] | 0 | 0 |  |  |
| O=C1CCCC(Sc2ccc(Br)cc2)=C1C(=O)c1ccc2c(c1Cl)CCS2(=O)=O [B-21] | 0 | 0 |  |  |
| Cc1cc(C(=O)C2=C(O)CCCC2=O)c(C)c2c1S(=O)(=O)C(C)C2 (stereo not shown) [Comparative Example I-4, reference compound] |  |  | 2 | 4 |
| CO/N=C1\CCS(=O)(=O)c2c(C)cc(C(=O)C3=C(S(=O)(=O)c4ccc(C)cc4)CCCC3=O)c(C)c21 [B-60, 4-methoxyimino-5,8-dimethyl-6-[3-(4-methylphenyl)sulfonyl-1-oxocyclohexan-2-yl]carbonylthiochroman-1,1-1,1-dioxide] | 0 | 0 |  |  |

| SMILES | Chemical injury, Transplanted paddy rice plant (dose 100 g/ha) | Chemical injury, Transplanted paddy rice plant (dose 200 g/ha) | Chemical injury, Transplanted paddy rice plant [1] | Chemical injury, Transplanted paddy rice plant [2] |
| --- | --- | --- | --- | --- |
| Cc1ccc(S(=O)(=O)C2=C(C(=O)c3ccc4c(c3Cl)CCS4(=O)=O)C(=O)CCC2)cc1 [B-34] | 0 | 0 |  |  |
| CC1CC(C)C(O)=C(C(=O)c2ccc3c(c2Cl)CCS3(=O)=O)C1=O (stereo not shown) [A-14, 4-chloro-5-(4,6-dimethyl-1,3-dioxocyclohexan-2-yl)carbonyl-2,3-dihydrobenzothiophene-1,1-dioxide] |  |  | 1 | 2 |
| CS(=O)(=O)C1=C(C(=O)c2ccc3c(c2Cl)CCCS3(=O)=O)C(=O)CCC1 [B-80] | 0 | 0 |  |  |
| Cc1cc(C(=O)C2=C(S(C)(=O)=O)CCCC2=O)c(C)c2c1S(=O)(=O)CCC2OC(C)C (stereo not shown) [B-69] | 0 | 1 |  |  |
| CC1(C)CC(=O)C(C(=O)c2ccc3c(c2Cl)CCS3(=O)=O)=C(O)C1 [A-9, 4-chloro-5-(5,5-dimethyl-1,3-dioxocyclohexan-2-yl)carbonyl-2,3-dihydrobenzothiophene-1,1-dioxide] |  |  | 1 | 3 |
| Cc1ccccc1S(=O)(=O)C1=C(C(=O)c2ccc3c(c2Cl)CCS3(=O)=O)C(=O)CCC1 [B-32] | 0 | 0 |  |  |
| CSC1=C(C(=O)c2cc(C)c3c(c2C)C(OC(C)C)CCS3(=O)=O)C(=O)CCC1 (stereo not shown) [B-67] | 0 | 1 |  |  |
| O=C1CCCC(Sc2ccccc2Cl)=C1C(=O)c1ccc2c(c1Cl)CCS2(=O)=O [B-17] | 0 | 0 |  |  |
| Cc1cc(C(=O)C2=C(S(=O)(=O)Cc3ccccc3)CCCC2=O)c(C)c2c1S(=O)(=O)CCC2OC(C)C (stereo not shown) [B-71] | 0 | 1 |  |  |
| C=CCSC1=C(C(=O)c2ccc3c(c2Cl)CCS3(=O)=O)C(=O)CCC1 [B-22, 4-chloro-5-[3-(3-propenyl)thio-1-oxocyclohexan-2-yl]carbonyl-2,3-dihydrobenzothiophene-1,1-dioxide] | 0 | 0 |  |  |
| O=C1CCCC(Br)=C1C(=O)c1ccc2c(c1Cl)CCS2(=O)=O [B-6] | 0 | 0 |  |  |
| CCCSC1=C(C(=O)c2ccc3c(c2Cl)CCS3(=O)=O)C(=O)CCC1 [B-8, 4-chloro-5-[3-(3-propyl)thio-1-oxocyclohexan-2-yl]carbonyl-2,3-dihydrobenzothiophene-1,1-dioxide] | 0 | 0 |  |  |
| CC1CC(=O)C(C(=O)c2ccc3c(c2Cl)CCS3(=O)=O)=C(Sc2ccccc2)C1 (stereo not shown) [B-26] | 0 | 0 |  |  |
| CC1(C)CCC(O)=C(C(=O)c2ccc3c(c2Cl)CCS3(=O)=O)C1=O [A-8, 4-chloro-5-(4,4-dimethyl-1,3-dioxocyclohexan-2-yl)carbonyl-2,3-dihydrobenzothiophene-1,1-dioxide] |  |  | 1 | 3 |
| Cc1cc(C(=O)C2=C(O)CCCC2=O)c(Cl)c2c1S(=O)(=O)CC2 [A-3, 4-chloro-7-methyl-5-(1,3-dioxocyclohexan-2-yl) carbonyl-2,3-dihydrobenzothiophene-1,1-dioxide] |  |  | 1 | 3 |
| O=C1CCCC(Sc2ccccc2)=C1C(=O)c1ccc2c(c1Cl)CCCS2(=O)=O [B-78] | 0 | 0 |  |  |
| Cc1cc(C(=O)C2=C(O)CCCC2=O)c(C)c2c1S(=O)(=O)CC2C (stereo not shown) [Comparative Example I-3, reference compound] |  |  | 3 | 4 |

Reference: patent US20040002425A1, “Triketone derivatives and herbicides” (Idemitsu Kosan Co., Ltd., priority 1998, published 2004)
